Test results from the Kinase Knowledgebase extract (Sharma et al. 2016).
pIC50: −log10 of the molar value.

Biological target: EGFR (UniProt P00533)
Sequence (P00533 whole entry, looked up): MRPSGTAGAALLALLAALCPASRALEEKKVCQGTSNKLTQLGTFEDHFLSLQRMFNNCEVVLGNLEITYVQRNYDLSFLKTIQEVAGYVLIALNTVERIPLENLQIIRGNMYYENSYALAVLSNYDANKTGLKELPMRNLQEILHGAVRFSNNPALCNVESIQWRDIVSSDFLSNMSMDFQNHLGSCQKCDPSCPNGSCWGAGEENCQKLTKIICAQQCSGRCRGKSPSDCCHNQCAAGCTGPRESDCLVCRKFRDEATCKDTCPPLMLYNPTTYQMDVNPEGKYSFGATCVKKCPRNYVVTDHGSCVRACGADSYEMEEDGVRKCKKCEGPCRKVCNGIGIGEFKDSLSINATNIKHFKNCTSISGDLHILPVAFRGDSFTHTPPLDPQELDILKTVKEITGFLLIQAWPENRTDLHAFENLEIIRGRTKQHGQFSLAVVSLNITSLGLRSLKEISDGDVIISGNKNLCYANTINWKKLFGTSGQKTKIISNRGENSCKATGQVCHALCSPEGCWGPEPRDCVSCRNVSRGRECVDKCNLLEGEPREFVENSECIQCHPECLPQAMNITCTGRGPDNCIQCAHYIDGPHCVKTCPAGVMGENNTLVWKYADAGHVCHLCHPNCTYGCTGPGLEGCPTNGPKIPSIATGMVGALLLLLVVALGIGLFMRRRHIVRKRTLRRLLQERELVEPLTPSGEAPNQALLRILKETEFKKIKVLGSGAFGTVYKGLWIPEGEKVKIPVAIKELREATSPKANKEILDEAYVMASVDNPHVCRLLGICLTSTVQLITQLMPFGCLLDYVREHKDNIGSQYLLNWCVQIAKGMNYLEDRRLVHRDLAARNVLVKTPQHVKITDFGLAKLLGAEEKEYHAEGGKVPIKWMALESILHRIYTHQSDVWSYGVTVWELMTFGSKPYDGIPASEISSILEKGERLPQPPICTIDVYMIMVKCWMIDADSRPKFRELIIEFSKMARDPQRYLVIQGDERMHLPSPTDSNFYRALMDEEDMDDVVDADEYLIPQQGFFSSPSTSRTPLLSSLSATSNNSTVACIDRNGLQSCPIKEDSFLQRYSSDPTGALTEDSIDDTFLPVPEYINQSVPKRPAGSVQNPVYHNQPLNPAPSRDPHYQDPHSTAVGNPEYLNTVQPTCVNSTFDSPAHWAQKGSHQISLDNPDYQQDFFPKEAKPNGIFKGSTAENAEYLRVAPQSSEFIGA

| SMILES | pIC50 |
| --- | --- |
| CC(=O)Nc1cc2ncnc(Nc3cccc(Br)c3)c2cn1 | 7.53 |
| O=C(O)CNc1cc2ncnc(Nc3cccc(Br)c3)c2cn1 | 8.82 |
| Brc1cccc(Nc2ncnc3cnc(NCCc4c[nH]cn4)nc23)c1 | 9.60 |
| COc1cc2ncnc(Nc3cccc(Br)c3)c2cn1 | 7.40 |
| OCCNc1cc2ncnc(Nc3cccc(Br)c3)c2cn1 | 9.60 |
| CN1CCN(CCCNc2cc3ncnc(Nc4cccc(Br)c4)c3cn2)CC1 | 8.30 |
| CN(C)CCCCNc1cc2ncnc(Nc3cccc(Br)c3)c2cn1 | 8.13 |
| Fc1ccc2c(Nc3cccc(Br)c3)ncnc2n1 | 6.16 |
| CN(C)CCN(C)c1cc2ncnc(Nc3cccc(Br)c3)c2cn1 | 7.40 |
| COc1cccc(Nc2ncnc3cc(N)ncc23)c1 | 6.88 |
| Brc1cccc(Nc2ncnc3cc(NCCCn4ccnc4)ncc23)c1 | 9.29 |
| O=S(=O)(O)CCNc1cc2ncnc(Nc3cccc(Br)c3)c2cn1 | 8.85 |
| O=C(O)CCCNc1cc2ncnc(Nc3cccc(Br)c3)c2cn1 | 9.55 |
| Brc1cccc(Nc2ncnc3cc(NCCCCN4CCOCC4)ncc23)c1 | 8.26 |
| CN(C)CCCCCNc1cc2ncnc(Nc3cccc(Br)c3)c2cn1 | 8.07 |
| OCCN(CCO)CCCNc1cc2ncnc(Nc3cccc(Br)c3)c2cn1 | 8.92 |
| OCCN(CCO)c1cc2ncnc(Nc3cccc(Br)c3)c2cn1 | 7.92 |
| Cc1cccc(Nc2ncnc3cc(NCCCCN(C)C)ncc23)c1 | 8.26 |

| SMILES | pIC50 |
| --- | --- |
| Brc1cccc(Nc2ncnc3cnc(NCCN4CCOCC4)nc23)c1 | 9.09 |
| O=C(O)CCNc1cc2ncnc(Nc3cccc(Br)c3)c2cn1 | 9.21 |
| Cc1cccc(Nc2ncnc3cc(NCCCn4ccnc4)ncc23)c1 | 8.46 |
| Brc1cccc(Nc2ncnc3cc(NCCCN4CCOCC4)ncc23)c1 | 8.72 |
| CN(C)CCNc1cc2ncnc(Nc3cccc(Br)c3)c2cn1 | 7.34 |
| CN(C)CCCNc1cc2ncnc(Nc3cccc(Br)c3)c2cn1 | 8.05 |
| Brc1cccc(Nc2ncnc3cc(NCCc4c[nH]cn4)ncc23)c1 | 9.04 |
| OCCN(CCO)CCNc1cc2ncnc(Nc3cccc(Br)c3)c2cn1 | 8.03 |
| CN(CC(=O)O)c1cc2ncnc(Nc3cccc(Br)c3)c2cn1 | 7.79 |
| NNc1cc2ncnc(Nc3cccc(Br)c3)c2cn1 | 8.14 |
| Brc1cccc(Nc2ncnc3cc(NCCN4CCOCC4)ncc23)c1 | 8.49 |
| CN(CCO)c1cc2ncnc(Nc3cccc(Br)c3)c2cn1 | 8.59 |
| CN(CC(O)CO)c1cc2ncnc(Nc3cccc(Br)c3)c2cn1 (stereo unspecified) | 8.49 |
| OCN(CO)c1cc2ncnc(Nc3cccc(Br)c3)c2cn1 | 7.85 |
| Nc1cc2ncnc(Nc3ccc(Br)cc3)c2cn1 | 7.59 |
| Cc1cccc(Nc2ncnc3cc(NCCCN4CCN(C)CC4)ncc23)c1 | 8.25 |
| OCC(O)CNc1cc2ncnc(Nc3cccc(Br)c3)c2cn1 (stereo unspecified) | 9.03 |
| CNc1ccc2ncnc(Nc3cccc(Br)c3)c2n1 | 8.49 |
